This note sets out measurements from US20150072933A1, “NOVEL SEQUENCES FOR THE CONTROL OF REPRODUCTION IN FISH” (Yissum Research Development Company of the Hebrew …, priority 2011, published 2015).

The subject of assay [1] is zfTac3ra. Briefly: Receptor transactivation assay, CRE-Luc reporter (PKA activation), COS-7 cells expressing zfTac3ra. Particulars: mean ± SEM. It counts as cell-based, zebrafish. As to the method:
(§1) In order to study the signaling pathways of the novel zebrafish NKBs, the entire coding regions of zftac3ra (denoted by SEQ ID NO:6) or zftac3rb (denoted by SEQ ID NO:7), or the cDNA clone for human NK3R (obtained from the Missouri S&T cDNA Resource Center, were inserted into pcDNA3.1 (Invitrogen). The luciferase assay was conducted according to Biran et al., 2008 [4] COS-7 cells were grown in DMEM supplemented with 10% FBS, 1% glutamine, 100 U/ml penicillin, and […] streptomycin (Biological Industries) under 5% CO2 until confluent. Cotransfection of either pc-zftac3ra, pc-zftac3rb or pc-Htac3r (at 3 μg/plate), a reporter plasmid (at 2 μg/plate), and pCMV-β-galactosidase (at 1 μg/plate) was carried out with FuGENE 6.0 reagent (Roche). The cells were serum starved for 36 h, stimulated with vehicle or various concentrations of either human (Sigma) or zebrafish NKBs for 6 h, and then harvested and analyzed. Lysates prepared from the harvested cells were assayed for both luciferase activity and β-galactosidase activity, which was used as an internal standard to normalize the luciferase activity directed by the test plasmid. Transfection experiments were performed in triplicate with three independently isolated sets. Protein structure prediction of zebrafish NKBa, NKBb or NKF were performed on I-Tasser servers.
(§2) The response, binding selectivity and signal transduction pathways of the novel tachykinin receptors to their agonists were evaluated by functional expression analysis, using COS-7 cells.
(§3) The NKB analogues (i.e. the NKBa-analog, NKBb-analog and NKF-analog, as denoted by SEQ ID NO. 44-46) were first analyzed in comparison to their native forms in a transactivation assay, using reporter genes for specific signal transduction pathways. To validate the specificity of the serum-responsive element (SRE)-Luc and cAMP-responsive element (CRE)-Luc reporter systems, specific activators for PLC/PKC and AC/PKA signaling pathways were used in control experiments.
(§4) Thus, the ability of the three novel piscine peptides (namely, NKBa, NKBb and NKF, denoted by SEQ ID NO.40, 41 and 42), as well as the ability of the three analogous agonistic peptides, namely, NKBa-analog, NKBb-analog and NKF-analog, to differentially activate the different tac3 receptors, using SRE as a reporter gene that follows PKC activation and CRE as a reporter gene for the PKA pathway, was tested. Human NK3R (human NKB receptor) and human NKB served as controls.

Assay [2] has as its system zfTac3rb. The assay can be described thus: Receptor transactivation assay, CRE-Luc reporter (PKA activation), COS-7 cells expressing zfTac3rb. Format: cell-based, zebrafish. The following applies: mean ± SEM. As to the method:
as §1, §2, §3, §4

The subject of assay [3] is zfTac3ra. The assay can be described thus: Receptor transactivation assay, SRE-Luc reporter (PKC activation), COS-7 cells expressing zfTac3ra. Format: cell-based, zebrafish. Particulars: mean ± SEM. As to the method: as §1, §2, §3, §4
Assay [4] concerns zfTac3rb. Briefly: Receptor transactivation assay, SRE-Luc reporter (PKC activation), COS-7 cells expressing zfTac3rb. It counts as cell-based, zebrafish. Particulars: mean ± SEM. As to the method:
as §1, §2, §3, §4

Assay [5] deals with T1, huNK3R (Homo sapiens, UniProt P29371).
T1 construct: host or cells: COS-7
T1 sequence (P29371 1-465): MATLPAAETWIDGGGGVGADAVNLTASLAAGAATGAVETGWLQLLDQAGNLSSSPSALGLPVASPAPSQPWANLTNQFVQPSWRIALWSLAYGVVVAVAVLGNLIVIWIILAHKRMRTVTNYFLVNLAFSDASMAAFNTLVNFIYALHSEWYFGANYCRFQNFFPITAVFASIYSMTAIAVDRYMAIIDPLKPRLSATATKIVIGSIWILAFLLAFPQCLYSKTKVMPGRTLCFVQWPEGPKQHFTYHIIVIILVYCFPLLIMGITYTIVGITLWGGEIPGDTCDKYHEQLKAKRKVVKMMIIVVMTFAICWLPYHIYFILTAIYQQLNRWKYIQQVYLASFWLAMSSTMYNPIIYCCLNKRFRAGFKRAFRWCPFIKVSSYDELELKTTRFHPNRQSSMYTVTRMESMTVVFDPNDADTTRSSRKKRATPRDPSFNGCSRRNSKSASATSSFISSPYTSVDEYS
The assay can be described thus: Receptor transactivation assay, SRE-Luc reporter (PKC activation), COS-7 cells expressing human NK3R. Format: cell-based. Particulars: for SRE-driven luciferase activity, response: COS-7 cells transiently transfected with human NK3R; for EC50: Table 5, COS-7 cells, SRE-Luc follows PKC activation, mean ± SEM.
Protocol: In order to study the signaling pathways of the novel zebrafish NKBs, the entire coding regions of zftac3ra (denoted by SEQ ID NO:6) or zftac3rb (denoted by SEQ ID NO:7), or the cDNA clone for human NK3R (obtained from the Missouri S&T cDNA Resource Center, were inserted into pcDNA3.1 (Invitrogen). The luciferase assay was conducted according to Biran et al., 2008 [4] COS-7 cells were grown in DMEM supplemented with 10% FBS, 1% glutamine, 100 U/ml penicillin, and 100 mg/ml streptomycin (Biological Industries) under 5% CO2 until confluent. Cotransfection of either pc-zftac3ra, pc-zftac3rb or pc-Htac3r (at 3 μg/plate), a reporter plasmid (at 2 μg/plate), and pCMV-β-galactosidase (at 1 μg/plate) was carried out with FuGENE 6.0 reagent (Roche). The cells were serum starved for 36 h, stimulated with vehicle or various concentrations of either human (Sigma) or zebrafish NKBs for 6 h, and then harvested and analyzed. Lysates prepared from the harvested cells were assayed for both luciferase activity and β-galactosidase activity, which was used as an internal standard to normalize the luciferase activity directed by the test plasmid. Transfection experiments were performed in triplicate with three independently isolated sets.

Assay [6] concerns the target T2, NKB receptors (human NKBR, zebrafish Tac3ra, Tac3rb) (Homo sapiens, UniProt P29371).
T2 construct: expressed in transfected cells; host or cells: COS-7
T2 sequence (P29371 1-465): T1 sequence (P29371 1-465)
Briefly: Receptor transactivation assay, statements in words across SRE-Luc and CRE-Luc reporters and receptors. Format: cell-based. The following applies: human NKBR (huNK3R), in both signal transduction systems (SRE-Luc and CRE-Luc). As to the method: as §1, §2, §4

The subject of assay [7] is NKB receptors (human NKBR, zebrafish Tac3ra, Tac3rb). The description is as above. It counts as cell-based. As to the method:
as §1, §2, §4

Assay [8] has as its system sexually mature female zebrafish. Briefly: In vivo effect of NKBs in zebrafish: LH secretion after intraperitoneal injection. The following applies: single intraperitoneal injection; for LH secretion: 20 pmol/g body weight, sexually mature female zebrafish. As to the method:
In vivo studies involved administering NKBa, NKBb or NKF and the analogues thereof, denoted by SEQ ID NO. 40-42 and 44-46, respectively to immature fish (20 fish/treatment). The circulating levels of E2, 11KT, LH and FSH were determined prior to hormonal manipulations, in order to confirm that these fish were indeed sexually immature. The fish were injected intramuscularly (i.m.) or intraperitonealy (i.p.) at various doses. Adult female zebra fish were injected intraperitoneally with 20 pmol/g body weight. Control fish were injected with saline. Plasma samples were collected at time 0, and specific times after the administration of the peptide/s, to determine the levels of E2, 11KT, LH and FSH.
To further characterize the role of the NKB/NKBR system in fish reproduction the in vivo biological function of zebrafish NKB peptides was next examined.

In assay [9] the test system is Mature female carp. Briefly: Gonadotropin release from mature carp in vivo (LH by ELISA). Particulars: mature female carp just before spawning, injected 20 μg/kg body weight; listed as NKBb analogue. As to the method:
Mature female carp, just before spawning, were injected with NKBa, NKBb and NKF analogues, denoted by SEQ ID NO.44, SEQ ID NO.45 and SEQ ID NO.46, respectively (20 μg/kg body weight). LH levels was measured by specific ELISA, according to Aizen et al. 2012 [33].
(In general: ELISA stands for enzyme-linked immunosorbent assay.)

Setting [10] is: Table 5, COS-7 cells, CRE-Luc follows PKA activation, read-out: EC50 CRE-Luc zfTac3ra.
The mark [11] stands for this setting: Table 6 (native peptides and analogues), PKA activation, read-out: EC50 using CRE-Luc, zfTac3ra.
Setting [12] is: Table 5, COS-7 cells, CRE-Luc follows PKA activation, read-out: EC50 CRE-Luc zfTac3rb.
[13] abbreviates: Table 6 (native peptides and analogues), PKA activation, read-out: EC50 using CRE-Luc, zfTac3rb.
Where [14] appears, read: Table 5, COS-7 cells, SRE-Luc follows PKC activation, read-out: EC50 SRE-Luc zfTac3ra.
The mark [15] stands for this setting: Table 7 (native peptides and analogues), PKC activation, read-out: EC50 using SRE, zfTac3ra.
[16] abbreviates: Table 5, COS-7 cells, SRE-Luc follows PKC activation, read-out: EC50 SRE-Luc zfTac3rb.
Where [17] appears, read: Table 7 (native peptides and analogues), PKC activation, read-out: EC50 using SRE, zfTac3rb.

Entries after “also recorded” stand apart in the source; their conditions may differ. *1 amine or outer side, *2 acyl side, *3 side chain or, on linkers, in order; H or OH if unused. Where a SMILES comes first, the peptide text is derived from it. [ ]: non-standard residue; d: D form. Suc = O=C(CCC(=O)[*:2])[*:1]; NMeV = CN[C@H](C(=O)O)C(C)C

As to `CC[C@H](C)[C@H](NC(=O)[C@H](CC(=O)O)NC(=O)[C@H](Cc1c[nH]cn1)NC(=O)[C@H](CCSC)NC(=O)[C@@H](N)CCC(=O)O)C(=O)N[C@@H](Cc1ccccc1)C(=O)N[C@H](C(=O)NCC(=O)N[C@@H](CC(C)C)C(=O)N[C@@H](CCSC)C(N)=O)C(C)C` [zfNKBa] (H-EMHDIFVGLM-NH2), the EC50 was determined as 5.75 ± 1.45 nM in assay [1] (setting [10]); 4.75 ± 1.48 nM in assay [1] (setting [11]); 4.55 ± 1.57 nM in assay [2] (setting [12]); 16 nM in assay [2] (Table 6 (native peptides and analogues), PKA activation, listed as NKBa, read-out: EC50 using CRE-Luc, zfTac3rb); 16.4 ± 12 nM in assay [2] (setting [13]); 0.5 ± 0.17 nM in assay [3] (setting [14]). The concentration giving a half-maximal response (EC50) in assay [3] (setting [15]) is 0.62 ± 0.22 nM; in assay [4] (setting [16]) it was 1.47 ± 1.66 nM; in [4] (setting [17]) it was 26.1 nM; in [5], 0.49 ± 0.18 nM. Also, the “SRE-driven luciferase activity, response” value in assay [5] was “elicited an increased response”. Moreover, the “potency” value in [6] is “high potency”; in [7] (both zebrafish tac3 receptors, in both signal transduction systems), “most potent among all tachykinins examined”. The “effectiveness in the transactivation assay” value in assay [7] (native peptides versus analogues, Example 12) is recorded as “most effective peptide”. Moreover, the LH secretion entry in assay [8] is “significant increase; also recorded: significant LH secretion”. In addition, the “magnitude of the induced LH discharge” value in assay [8] (compared with GnRH) is listed as “comparable with that observed in response to GnRH”.
Turning to `CSCC[C@H](NC(=O)[C@H](CC(C)C)NC(=O)CNC(=O)[C@H](C(C)C)N(C)C(=O)[C@H](Cc1ccccc1)NC(=O)[C@H](CC(=O)O)NC(=O)CCC(=O)O)C(N)=O` [zfNKBb-analog, Succ-Asp-Phe-N(Me)Val-Gly-Leu-Met-NH2] (Suc-DF[NMeV]GLM-NH2), the EC50 was 1.7 nM in assay [1] (Table 6 (native peptides and analogues), PKA activation, listed as NKBb-analog, read-out: EC50 using CRE-Luc, zfTac3ra); 1.68 ± 1.21 nM in [1] (setting [11]); 2.2 nM in assay [2] (Table 6 (native peptides and analogues), PKA activation, listed as NKBb-analog, read-out: EC50 using CRE-Luc, zfTac3rb); 2.18 ± 1.34 nM in assay [2] (setting [13]); 0.06 nM in [3] (setting [15]); 0.23 nM in assay [4] (setting [17]). For the same molecule, the LH level result in [9] is “significant elevation; also recorded: increased the level of LH significantly”.
With `CC[C@H](C)[C@H](NC(=O)CNC(=O)[C@@H](NC(=O)[C@@H](N)CO)[C@@H](C)O)C(=O)N[C@@H](CC(N)=O)C(=O)N[C@@H](CCCNC(=N)N)C(=O)N[C@@H](CCC(=O)O)C(=O)N[C@@H](C)C(=O)N[C@@H](Cc1c[nH]cn1)C(=O)N[C@@H](CC(C)C)C(=O)N1CCC[C@H]1C(=O)N[C@@H](Cc1ccccc1)C(=O)N[C@@H](CCCNC(=N)N)C(=O)N1CCC[C@H]1C(=O)N[C@@H](CC(N)=O)C(=O)N[C@@H](CCSC)C(=O)N[C@@H](CC(N)=O)C(=O)N[C@@H](CC(=O)O)C(=O)N[C@H](C(=O)N[C@@H](Cc1ccccc1)C(=O)N[C@H](C(=O)NCC(=O)N[C@@H](CC(C)C)C(=O)N[C@@H](CC(C)C)C(N)=O)C(C)C)[C@@H](C)CC` [zfNKBb] (H-STGINREAHLPFRPNMNDIFVGLL-NH2; N-terminus assumed), the EC50 worked out at 237 ± 134 nM in assay [1] (setting [10]); 99.6 nM in [1] (Table 6 (native peptides and analogues), PKA activation, listed as NKBb, read-out: EC50 using CRE-Luc, zfTac3ra); 99.6 ± 12.9 nM in assay [1] (setting [11]); 519 ± 160 nM in assay [2] (setting [12]); 191 nM in assay [2] (setting [13]); 8.96 ± 1.19 nM in [3] (setting [14]). Also, the concentration giving a half-maximal response (EC50) was determined as 6.06 nM in assay [3] (setting [15]); 33.8 ± 14.7 nM in [4] (setting [16]); 15.3 nM in [4] (Table 7 (native peptides and analogues), PKC activation, listed as NKBb, read-out: EC50 using SRE, zfTac3rb); 15.3 ± 18.3 nM in assay [4] (setting [17]); 204 ± 139 nM in assay [5]. In assay [5], the “SRE-driven luciferase activity, response” value is recorded as “lowest effect”. Further, the “potency” value in [6] is recorded as “relatively low potency”. Besides, the “luciferase activity” value in assay [7] (both SRE-Luc and CRE-Luc, both signal transduction pathways) is listed as “less effective than the other forms”. The “activation of the piscine NKB receptors” value in [7] (zebrafish tac3ra and tac3rb, FIGS. 11A, B, D, E) is “lowest effect”. Further, the LH secretion entry in assay [8] is recorded as “significant increase; also recorded: less pronounced”.

What is called EC50 is the concentration needed to bring the measured effect to its halfway point.
